One data set concerns the target T1, CYP3A4 (Homo sapiens, UniProt P08684).
T1 construct: purchased BD Biosciences
Kind of data set: CYP450 inhibition, CYP3A4/BFC screening kit. It is filed as in vitro ADME. An excerpt:
(§1) In vitro CYP450 inhibition screening allows for the prediction of potential drug-drug interactions. […] Potency and rank order of the inhibition can be assessed by determination of the IC50 values for a particular isozyme.
(§2) CYP3A4 inhibition was screened using the CYP3A4/BFC high throughput inhibitor screening kit (BD Biosciences), CYP2D6 inhibition was screened using the CYP2D6/AMMC high throughput inhibitor screening kit (BD Biosciences), and CYP2C9 inhibition was screened using the P450-Glo™ Assay kit (Promega).

The nature of data set [1]: Metabolic stability in monkey liver microsomes. Format: in vitro ADME. Particulars: 10 μM, 1 mg/mL microsomes, 37° C. An excerpt:
(§3) The metabolic stability assay is to evaluate the stability of test compound in biological matrices. Data are useful in terms of understanding and predicting the elimination mechanisms of the test compound. CYP450-dependent metabolism of drugs can also vary widely from one species to another. Evaluating in vitro metabolism of a drug by liver microsomes from multiple species allows the comparison of metabolism in animal species to that of humans. This can help identify the most relevant animal model for PK and toxicology studies. The metabolic stability of a test compound was evaluated in vitro in liver microsomes of the rat, dog, monkey, and human. 10 μM of the test compound was pre-incubated for 5 min at 37° C. with 1 mg/mL liver microsomes in 0.1M Tris buffer, pH 7.4 containing 5 mM MgCl2 and 0.1 mM EDTA. Following pre-incubation, NADPH (final concentration of 3 mM) was added to start the reaction and samples incubated for 0 and 1 or 2 hours. After terminating the reaction, the supernatant was analyzed by HPLC-UV or LC/MS/MS for the disappearance of the parent and formation of metabolite(s). The %parent remaining was the peak area ratio of the 1 or 2 hr sample to the time 0 sample. In general, less metabolism (higher % parent values) is more desirable.

A short description of data set [2]: Metabolic stability in human liver microsomes. Format: in vitro ADME. Particulars: 10 μM, 1 mg/mL microsomes, 37° C.
Source text: as §3

Data set [3] is described as follows: Metabolic stability in rat liver microsomes. It is filed as in vitro ADME. Particulars: 10 μM, 1 mg/mL microsomes, 37° C.
Source text: as §3

The nature of data set [4]: pH dependent aqueous solubility, shake-flask method. It is filed as physicochemical. Particulars: aqueous solution, thermodynamic from solid, saturated concentration 1 mM. As to the method: The aqueous solubility of each compound was determined by the conventional shake-flask method at a saturated concentration of 1 mM. The flask (vial) was shaken for 3 hrs at ambient temperature, and then centrifuged. The supernatant was analyzed by HPLC with UV detection for solubility determination. In general, a higher aqueous solubility is more desirable for drug candidates.

Another data set deals with T2, CYP2D6 (Homo sapiens, UniProt P10635).
T2 construct: purchased BD Biosciences
T2 sequence (P10635 whole entry): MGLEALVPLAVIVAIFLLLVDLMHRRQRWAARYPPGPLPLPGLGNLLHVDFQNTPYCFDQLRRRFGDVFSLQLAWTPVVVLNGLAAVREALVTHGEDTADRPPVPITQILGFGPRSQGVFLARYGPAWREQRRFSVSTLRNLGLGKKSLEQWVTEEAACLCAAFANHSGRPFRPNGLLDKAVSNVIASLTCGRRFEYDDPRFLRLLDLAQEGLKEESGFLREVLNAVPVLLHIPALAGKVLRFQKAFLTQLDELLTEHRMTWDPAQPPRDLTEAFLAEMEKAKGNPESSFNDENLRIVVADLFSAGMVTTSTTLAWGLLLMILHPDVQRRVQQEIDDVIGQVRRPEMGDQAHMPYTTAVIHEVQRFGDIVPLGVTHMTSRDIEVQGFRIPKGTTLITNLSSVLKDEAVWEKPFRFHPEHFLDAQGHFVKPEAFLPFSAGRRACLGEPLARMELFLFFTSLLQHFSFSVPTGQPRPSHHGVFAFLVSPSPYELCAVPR
As to the kind of experiment: CYP450 inhibition, CYP2D6/AMMC screening kit. It is filed as in vitro ADME.
Source text: as §1, §2

Another data set addresses T3, CYP2C9 (Homo sapiens, UniProt P11712).
T3 construct: purchased Promega
Kind of data set: CYP450 inhibition, CYP2C9 P450-Glo assay kit. It is filed as in vitro ADME.
Source text: as §1, §2

Data set [5] in a line: Human plasma protein binding, equilibrium dialysis. Format: in vitro ADME. The note with it: pooled human plasma, 37° C., about 6 hours, 1 μM drug, read-out: Protein binding (human plasma) % Free. As to the method: The human plasma protein binding was determined using the Equilibrium Dialysis method. Dialysis was conducted with pooled human plasma at 37° C. for approximately 6 hours at a drug concentration of 1 μM. At the end of the dialysis, buffer samples from the buffer-side of the dialysis cell were collected and analyzed by LC/MS/MS for free drug concentration. For NNRTIs, a lower protein binding is more desirable.

The nature of data set [6]: Metabolic stability in dog liver microsomes. Format: in vitro ADME. Particulars: 10 μM, 1 mg/mL microsomes, 37° C.
Source text: as §3

Data set [7] is described as follows: In vitro metabolism in liver microsomes, metabolic pathway. Format: in vitro ADME, rat, dog, monkey, and human. The note with it: LC/MS/MS metabolite profiling. As for the experimental part: Phase I biotransformation of a test compound is evaluated in this assay. Samples from the metabolic stability experiment were analyzed by LC/MS/MS for metabolite profiling and identification. Structures of metabolites were elucidated based on multiple MS/MS experiments such as full scan, neutral loss scan, and product ion scan. Metabolic pathways were then postulated based on the structures of major metabolites. For compounds from the phosphinate series, N-oxidation of the terminal pyridine ring is the predominant pathway, followed by the oxidation of the dimethyl-phenyl group, where the methyl group(s) is hydroxylated, further oxidized to an aldehyde, and finally to a carboxylic acid. The elucidation of metabolic pathways is important in terms of understanding the elimination mechanism of a test compound and assisting the design of new molecules with improved DM-PK profiles.

Data set [8] in a line: PK and oral bioavailability in the rat. Format: in vivo, Sprague-Dawley rats. Particulars: IV, 1.0 mg/kg. As to the method:
(§4) The pharmacokinetics of a test compound was evaluated in Sprague-Dawley rats and Beagle dogs. A typical PK study involved dosing of 2 to 3 animals via a single IV bolus injection at 1 mg/kg and another 3 animals via a single oral gavage at 5 mg/kg. Blood samples were collected at various time points over a 24-hr period. Plasma was separated and analyzed for test compound and its metabolite(s) by LC/MS/MS. PK parameters were calculated from the plasma concentration—time profile using a noncompartmental method. Oral bioavailability (F) was calculated based on dose-normalized AUC values from oral and IV administration. Higher oral bioavailability values are better.

Data set [9] is described as follows: PK and oral bioavailability in the dog. Format: in vivo, Beagle dogs. The note with it: for half-life: PEG400, read-out: T½ (converted). As to the method: as §4
Setting [10] is: pH 1, simulated gastric fluid, pH1, ambient temperature, read-out: Aqueous solubility pH1.
Setting [11] is: pH 3, aqueous buffer, pH3, ambient temperature, read-out: Aqueous solubility pH3.
Setting [12] is: pH 7, aqueous buffer, pH7, ambient temperature, read-out: Aqueous solubility pH7.
[13] abbreviates: pH 9, aqueous buffer, pH9, ambient temperature, read-out: Aqueous solubility pH9.
Setting [14] is: Beagle, plasma, IV, 1.0 mg/kg, PEG400.
Setting [15] is: Beagle, plasma, PO, 5.0 mg/kg, PEG400.

Converted amounts (≈) assume the structure as drawn. Like-named read-outs stand apart in the source and are kept apart here. Marks after values point to notes of the source that are not given here.

T3 sequence (P11712 whole entry): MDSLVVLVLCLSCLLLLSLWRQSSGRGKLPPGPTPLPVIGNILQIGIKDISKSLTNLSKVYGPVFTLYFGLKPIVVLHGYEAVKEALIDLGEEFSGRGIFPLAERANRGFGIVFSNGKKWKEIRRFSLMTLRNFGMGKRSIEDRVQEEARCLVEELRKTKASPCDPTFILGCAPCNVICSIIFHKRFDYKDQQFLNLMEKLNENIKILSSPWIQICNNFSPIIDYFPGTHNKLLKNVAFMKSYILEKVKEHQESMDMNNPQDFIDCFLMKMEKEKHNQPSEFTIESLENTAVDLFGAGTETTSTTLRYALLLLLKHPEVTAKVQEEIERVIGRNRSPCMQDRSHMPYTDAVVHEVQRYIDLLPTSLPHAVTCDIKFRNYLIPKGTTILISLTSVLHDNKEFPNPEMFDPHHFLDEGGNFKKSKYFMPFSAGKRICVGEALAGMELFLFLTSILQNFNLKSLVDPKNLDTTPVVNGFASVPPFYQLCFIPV
T1 sequence (P08684 whole entry): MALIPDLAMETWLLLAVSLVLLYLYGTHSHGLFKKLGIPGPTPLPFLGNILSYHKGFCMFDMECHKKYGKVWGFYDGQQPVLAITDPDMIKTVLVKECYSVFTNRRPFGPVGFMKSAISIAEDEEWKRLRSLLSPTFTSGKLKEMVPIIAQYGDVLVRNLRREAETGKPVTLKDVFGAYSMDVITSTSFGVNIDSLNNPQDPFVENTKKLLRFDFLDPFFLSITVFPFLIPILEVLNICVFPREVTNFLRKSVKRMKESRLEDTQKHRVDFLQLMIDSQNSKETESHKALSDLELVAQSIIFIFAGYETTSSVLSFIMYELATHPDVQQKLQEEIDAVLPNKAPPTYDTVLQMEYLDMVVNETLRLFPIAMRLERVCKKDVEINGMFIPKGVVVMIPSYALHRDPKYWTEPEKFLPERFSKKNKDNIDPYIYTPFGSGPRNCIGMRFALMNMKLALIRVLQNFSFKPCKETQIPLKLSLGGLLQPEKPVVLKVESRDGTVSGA

On to `COP(=O)(c1cc(C)cc(C)c1)c1c(C(=O)NCc2cc[n+]([O-])cc2)[nH]c2ccc(Cl)c(F)c12` (centres unmarked) [Compound B], for which the IC50 against CYP3A4 is 1040 nM; at CYP2D6, more than 10000 nM; at CYP2C9 it was more than 10000 nM. In addition, the “Metabolic stability in liver microsomes % Parent after 2 hrs, Monkey” value in [1] worked out at 63%. Further, in data set [2], the “Metabolic stability in liver microsomes % Parent after 2 hrs, Human” value turned out to be 94%. In addition, the “Metabolic stability in liver microsomes % Parent after 2 hrs, Rat” value in data set [3] is 1%. Further, the solubility at 3 h in data set [4] (setting [10]) was 190 µM (≈ 95.4 µg/mL); in [4] (setting [11]) it was 170 µM (≈ 85.3 µg/mL); in data set [4] (setting [12]) it was 200 µM (≈ 100 µg/mL); in [4] (setting [13]), 190 µM (≈ 95.4 µg/mL). Also, the fraction unbound at 6 h, 1 μM in data set [5] was 0.038. For the same compound, the “Metabolic stability in liver microsomes % Parent after 2 hrs, Dog” value in [6] was 85%.

Regarding `COP(=O)(c1cc(C)cc(F)c1)c1c(C(=O)NCc2cc[n+]([O-])cc2)[nH]c2ccc(Cl)cc12` (centres unmarked) [Compound G], the values for the concentration for half-maximal inhibition (IC50) against CYP3A4, against CYP2D6 and on CYP2C9 were 1140 nM, more than 10000 nM and 8850 nM, respectively. In data set [1], the “Metabolic stability in liver microsomes % Parent after 2 hrs, Monkey” value amounted to 41%. The “Metabolic stability in liver microsomes % Parent after 2 hrs, Human” value in data set [2] came out at 85%. In addition, in [3], the “Metabolic stability in liver microsomes % Parent after 2 hrs, Rat” value came out at 24%. For the same compound, in data set [5], the fraction unbound at 6 h, 1 μM amounted to 0.016. For the same compound, in data set [6], the “Metabolic stability in liver microsomes % Parent after 2 hrs, Dog” value is given as 77%. The “Metabolic pathway (in vitro)” value in data set [7] is “Hydroxylation to CH3OH— to CHO— to COOH—”.

Regarding `COP(=O)(C1=C(C(=O)NCc2ccncc2)N=C2C=CC(Cl)=CC21)c1cc(C)cc(C)c1` (centres unmarked) [Compound N], the IC50 was 660 nM against CYP3A4 and 2040 nM at CYP2D6. The “Metabolic stability in liver microsomes % Parent after 1 hr incubation, Monkey” value in data set [1] (1 hr (footnote *)) was 1%*. Besides, the “Metabolic stability in liver microsomes % Parent after 1 hr incubation, Human” value in data set [2] (1 hr (footnote *)) is given as 22%*. Further, the “Metabolic stability in liver microsomes % Parent after 1 hr incubation, Rat” value in [3] (1 hr (footnote *)) amounted to 1%*. In addition, the AUCinf/Dose in data set [8] (PEG400) is given as 125.9; in [9] (IV, 1.0 mg/kg, PEG400) it was 970.1; in data set [9] (PO, 5.0 mg/kg, PEG400), 27.7. Also, the CI in [8] (PEG400) is 133.2 mL/min/kg; in data set [9] (IV, 1.0 mg/kg, PEG400) it was 19.872 mL/min/kg. Also, the AUC(0-inf) in data set [8] (Sprague-Dawley, plasma, PEG400) came out at 126 ng·h/mL; in data set [9] (setting [14]) it was 970 ng·h/mL; in data set [9] (setting [15]) it was 139 ng·h/mL. For the same compound, the AUC(0-t) in data set [8] (Sprague-Dawley, plasma, PEG400) amounted to 108 ng·h/mL; in [9] (setting [14]) it was 924 ng·h/mL; in data set [9] (setting [15]), 116 ng·h/mL. Further, the maximum concentration (Cmax) was determined as 119 ng/mL in data set [8] (Sprague-Dawley, plasma, PEG400); 407 ng/mL in data set [9] (setting [14]); 60.9 ng/mL in [9] (setting [15]). For the same compound, the half-life in [8] (Sprague-Dawley, plasma, PEG400, read-out: T½ (converted)) is 0.9 h; in data set [9] (Beagle, plasma, IV, 1.0 mg/kg) it was 4.2 h; in [9] (Beagle, plasma, PO, 5.0 mg/kg), 2.8 h. Besides, the Vd in data set [8] (Sprague-Dawley, plasma, PEG400, read-out: Vss) is 9.59 L/kg; in [9] (Beagle, plasma, IV, 1.0 mg/kg, PEG400, read-out: Vss) it was 4.08 L/kg. In addition, the solubility at 3 h in data set [4] (setting [10]) was more than 1000 µM; in data set [4] (setting [11]) it was 231 µM (≈ 108 µg/mL); in [4] (setting [12]) it was 2.1 µM (≈ 0.983 µg/mL); in [4] (setting [13]) it was 1.7 µM (≈ 0.795 µg/mL). Further, in data set [5], the fraction unbound at 6 h, 1 μM was determined as 0.002. In addition, the time of peak concentration (Tmax) in [9] (setting [15]) amounted to 0.7 h. The compound further came in with a F in [9] (PO, 5.0 mg/kg, PEG400, oral bioavailability) of 2.9%. In addition, the “Metabolic stability in liver microsomes % Parent after 1 hr incubation, Dog” value in data set [6] (1 hr (footnote *)) is 24%*.

As to `COP(=O)(C1=C(C(=O)NCc2ccncc2)N=C2C=CC(Cl)=C(F)C21)c1cc(C)cc(C)c1` (centres unmarked) [Compound O], the results for the IC50 against CYP3A4, on CYP2D6 and at CYP2C9 were 810 nM, 1350 nM and 5350 nM, respectively. Moreover, the “Metabolic stability in liver microsomes % Parent after 2 hrs, Monkey” value in [1] is 1%. In data set [2], the “Metabolic stability in liver microsomes % Parent after 2 hrs, Human” value is on record as 15%. Further, the “Metabolic stability in liver microsomes % Parent after 2 hrs, Rat” value in data set [3] is reported as 2%. In addition, the solubility at 3 h in [4] (setting [10]) was 820 µM (≈ 398 µg/mL); in data set [4] (setting [11]) it was 590 µM (≈ 287 µg/mL); in data set [4] (setting [12]), 9.1 µM (≈ 4.42 µg/mL); in data set [4] (setting [13]), 10.1 µM (≈ 4.91 µg/mL). The fraction unbound at 6 h, 1 μM in data set [5] is 0.009. The “Metabolic stability in liver microsomes % Parent after 2 hrs, Dog” value in data set [6] is 29%.

In the case of `COP(=O)(C1=C(C(=O)NCc2ccncc2)N=C2C=CC(Cl)=CC21)c1cc(C)cc(F)c1` (centres unmarked) [Compound P], the IC50 on CYP3A4 was 770 nM; against CYP2D6, 2010 nM; on CYP2C9, 1680 nM. Besides, the “Metabolic stability in liver microsomes % Parent after 2 hrs, Monkey” value in [1] stood at 3%. Further, the “Metabolic stability in liver microsomes % Parent after 2 hrs, Human” value in data set [2] worked out at 3%. The “Metabolic stability in liver microsomes % Parent after 2 hrs, Rat” value in data set [3] worked out at 0%. Further, the solubility at 3 h in data set [4] (setting [10]) was more than 1000 µM; in [4] (setting [11]), 724 µM (≈ 342 µg/mL); in [4] (setting [12]), 24 µM (≈ 11.3 µg/mL); in [4] (setting [13]), 33.8 µM (≈ 15.9 µg/mL). For the same compound, the fraction unbound at 6 h, 1 μM in data set [5] was less than 0.005. Further, the “Metabolic stability in liver microsomes % Parent after 2 hrs, Dog” value in [6] is given as 20%.

(Values after patent US7534809B2, “Phospho-indoles as HIV inhibitors” (priority 2004, dated 2009).)
